Biological target: T1, CHK1 (Homo sapiens, UniProt O14757)
T1 construct: His; purchased Invitrogen
T1 sequence (O14757 1-476): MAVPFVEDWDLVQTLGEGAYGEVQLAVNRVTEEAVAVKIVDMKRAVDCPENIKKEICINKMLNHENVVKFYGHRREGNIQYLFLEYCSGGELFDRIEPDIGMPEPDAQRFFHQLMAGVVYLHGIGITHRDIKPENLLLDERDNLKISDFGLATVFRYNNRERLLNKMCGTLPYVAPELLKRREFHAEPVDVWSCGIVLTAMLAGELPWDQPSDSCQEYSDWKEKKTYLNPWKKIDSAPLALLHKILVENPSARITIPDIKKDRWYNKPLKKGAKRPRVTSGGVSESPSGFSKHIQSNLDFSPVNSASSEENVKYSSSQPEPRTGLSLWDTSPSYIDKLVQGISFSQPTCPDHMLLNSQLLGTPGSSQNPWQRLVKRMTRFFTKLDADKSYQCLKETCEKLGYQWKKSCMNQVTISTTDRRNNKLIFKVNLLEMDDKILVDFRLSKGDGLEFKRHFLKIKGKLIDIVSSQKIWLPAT
Assay: CHK1 Enzyme Assay (phosphorylation of Chktide peptide, 33P-ATP filter assay)
Format: biochemical
Details: 12.5 nM His-CHK1, 0.01 mM ATP, 40 minutes at 30° C.; read-out: CHK1 Enzyme Activity (IC50 range)
Outline: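 Filter-binding radiometric readout of 33P incorporation into Chktide (14.8 μM), after a 40 min, 30 °C reaction at pH 7.5 (50 mM Hepes-NaOH, 0.1 mg/mL BSA). The reaction contained 12.5 nM His-tagged CHK1, inhibitor and 0.01 mM cold ATP plus labelled ATP.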

SMILES	IC50
Cc1ccc(Cn2cc(C(=O)Nc3c[nH]c(=O)c(-c4cc5cc(CN6CCN(CCO)CC6)ccc5[nH]4)c3)cn2)cc1 [Example 62, 1-(4-Methyl-benzyl)-1H-pyrazole-4-carboxylic acid (5-{5-[4-(2-hydroxy-ethyl)-piperazin-1-ylmethyl]-1H-indol-2-yl}-6-oxo-1,6-dihydro-pyridin-3-yl)-amide]	< 100 nM
O=C(Nc1c[nH]c(=O)c(-c2cc3cc(CN4CCCC(F)C4)ccc3[nH]2)c1)c1cnn(Cc2ccc(Cl)cc2)c1 (centres unmarked) [Example 63, 1-(4-Chloro-benzyl)-1H-pyrazole-4-carboxylic acid {5-[5-(3-fluoro-piperidin-1-ylmethyl)-1H-indol-2-yl]-6-oxo-1,6-dihydro-pyridin-3-yl}-amide]	< 100 nM
O=C(Nc1c[nH]c(=O)c(-c2cc3cc(CN4CCCC4)ccc3[nH]2)c1)c1cnn(Cc2ccccc2)c1 [Example 50, 1-Benzyl-1H-pyrazole-4-carboxylic acid [6-oxo-5-(5-pyrrolidin-1-ylmethyl-1H-indol-2-yl)-1,6-dihydro-pyridin-3-yl]-amide]	< 100 nM
O=C(Nc1cnn(CC2CCCCC2)c1)c1c[nH]c(=O)c(-c2cc3ccccc3[nH]2)c1 [Example 34, 5-(1H-Indol-2-yl)-6-oxo-1,6-dihydro-pyridine-3-carboxylic acid (1-cyclohexylmethyl-1H-pyrazol-4-yl)-amide]	500 to 1500 nM
Cc1ccc(Cn2cc(NC(=O)c3c[nH]c(=O)c(-c4cc5ccccc5[nH]4)c3)cn2)cc1F [Example 14, 5-(1H-Indol-2-yl)-6-oxo-1,6-dihydro-pyridine-3-carboxylic acid [1-(3-fluoro-4-methyl-benzyl)-1H-pyrazol-4-yl]-amide]	100 to 500 nM
Cc1[nH]c(=O)c(-c2cc3ccccc3[nH]2)cc1C(=O)Nc1cnn(Cc2cccc(F)c2)c1 [Example 18, 5-(1H-Indol-2-yl)-2-methyl-6-oxo-1,6-dihydro-pyridine-3-carboxylic acid [1-(3-fluoro-benzyl)-1H-pyrazol-4-yl]-amide]	500 to 1500 nM
Cc1ccc(Cn2cc(C(=O)Nc3c[nH]c(=O)c(-c4cc5cc(CN6CC(O)C6)ccc5[nH]4)c3)cn2)cc1 [Example 42, 1-(4-Methyl-benzyl)-1H-pyrazole-4-carboxylic acid {5-[5-(3-hydroxy-azetidin-1-ylmethyl)-1H-indol-2-yl]-6-oxo-1,6-dihydro-pyridin-3-yl}-amide]	< 100 nM
CC1CN(Cc2ccc3[nH]c(-c4cc(NC(=O)c5cnn(Cc6ccc(C(C)C)cc6)c5)c[nH]c4=O)cc3c2)CC(C)O1 (centres unmarked) [Example 72, 1-(4-isopropylbenzyl)-1H-pyrazole-4-carboxylic acid {5-[5-(2,6-dimethylmorpholin-4-ylmethyl)-1H-indol-2-yl)-6-oxo-1,6-dihydropyridin-3-yl}-amide]	< 100 nM
O=C(Nc1c[nH]c(=O)c(-c2cc3cc(CNCCO)ccc3[nH]2)c1)c1cnn(Cc2ccc(Cl)cc2)c1 [Example 46, 1-(4-Chloro-benzyl)-1H-pyrazole-4-carboxylic acid (5-{5-[(2-hydroxy-ethylamino)-methyl]-1H-indol-2-yl}-6-oxo-1,6-dihydro-pyridin-3-yl)-amide]	< 100 nM
O=C(Nc1c[nH]c(=O)c(-c2cc3ccccc3[nH]2)c1)c1cnn(Cc2cccc(Cl)c2)c1 [Example 27, 1-(3-Chloro-benzyl)-1H-pyrazole-4-carboxylic acid [5-(1H-indol-2-yl)-6-oxo-1,6-dihydro-pyridin-3-yl]-amide]	< 100 nM
O=C(Nc1c[nH]c(=O)c(-c2cc3cc(CN4CCOCC4)ccc3[nH]2)c1)c1cnn(Cc2ccccc2)c1 [Example 51, 1-Benzyl-1H-pyrazole-4-carboxylic acid [5-(5-morpholin-4-ylmethyl-1H-indol-2-yl)-6-oxo-1,6-dihydro-pyridin-3-yl]-amide]	< 100 nM
O=C(Nc1c[nH]c(=O)c(-c2cc3ccccc3[nH]2)c1)c1cnn(Cc2ccc(Cl)cc2)c1 [Example 28, 1-(4-Chloro-benzyl)-1H-pyrazole-4-carboxylic acid [5-(1H-indol-2-yl)-6-oxo-1,6-dihydro-pyridin-3-yl]-amide]	< 100 nM
Cc1ccc(Cn2cc(C(=O)Nc3c[nH]c(=O)c(-c4cc5ccccc5[nH]4)c3)cn2)cc1 [Example 29, 1-(4-Methyl-benzyl)-1H-pyrazole-4-carboxylic acid [5-(1H-indol-2-yl)-6-oxo-1,6-dihydro-pyridin-3-yl]-amide]	< 100 nM
N#Cc1cccc(Cn2cc(NC(=O)c3c[nH]c(=O)c(-c4cc5ccccc5[nH]4)c3)cn2)c1 [Example 6, 5-(1H-Indol-2-yl)-6-oxo-1,6-dihydro-pyridine-3-carboxylic acid [1-(3-cyano-benzyl)-1H-pyrazol-4-yl]-amide]	100 to 500 nM
CC1CN(Cc2ccc3[nH]c(-c4cc(NC(=O)c5cnn(Cc6ccccc6)c5)c[nH]c4=O)cc3c2)CCN1C (centres unmarked) [Example 70, 1-Benzyl-1H-pyrazole-4-carboxylic acid {5-[5-(3,4-dimethyl-piperazin-1-ylmethyl)-1H-indol-2-yl]-6-oxo-1,6-dihydro-pyridin-3-yl}-amide]	< 100 nM

Results, then the compound that gave them:

IC50	SMILES
< 100 nM	Cc1ccc(Cn2cc(C(=O)Nc3c[nH]c(=O)c(-c4cc5cc(OCCCN(C)C)ccc5[nH]4)c3)cn2)cc1 [Example 122, 1-(4-Methyl-benzyl)-1H-pyrazole-4-carboxylic acid {5-[5-(3-dimethylamino-propoxy)-1H-indol-2-yl]-6-oxo-1,6-dihydro-pyridin-3-yl}-amide]
< 100 nM	O=C(Nc1cnn(Cc2ccc(F)c(F)c2)c1)c1c[nH]c(=O)c(-c2cc3cc(CNCCO)ccc3[nH]2)c1 [Example 103, 5-{5-[(2-Hydroxyethylamino)-methyl]-1H-indol-2yl}-6-oxo-1,6-dihydropyridine-3-carboxylic acid[1-(3,4-difluorobenzyl)-1H-pyrazol-4-yl]-amide]
< 100 nM	O=C(Nc1c[nH]c(=O)c(-c2cc3cc(OCCN4CCCCC4)ccc3[nH]2)c1)c1cnn(Cc2ccc(C(F)(F)F)cc2)c1 [Example 121, 1-(4-Trifluoromethyl-benzyl)-1H-pyrazole-4-carboxylic acid {6-oxo-5-[5-(2-piperidin-1-yl-ethoxy)-1H-indol-2-yl]-1,6-dihydro-pyridin-3-yl}-amide]
< 100 nM	CCNCc1ccc2[nH]c(-c3cc(NC(=O)c4cnn(Cc5ccc(F)cc5)c4)c[nH]c3=O)cc2c1 [Example 83, 1-(4-Fluoro-benzyl)-1H-pyrazole-4-carboxylic acid [5-(5-ethylaminomethyl-1H-indol-2-yl)-6-oxo-1,6-dihydro-pyridin-3-yl]-amide]
< 100 nM	CN1CCN(c2ccc3[nH]c(-c4cc(NC(=O)c5cnn(Cc6ccccc6)c5)c[nH]c4=O)cc3c2)CC1 [Example 113, 1-Benzyl-1H-pyrazole-4-carboxylic acid {5-[5-(4-methyl-piperazin-1-yl)-1H-indol-2-yl]-6-oxo-1,6-dihydro-pyridin-3-yl}-amide]
< 100 nM	C[C@@H]1CN(Cc2ccc3[nH]c(-c4cc(NC(=O)c5cnn(Cc6ccc(F)cc6)c5)c[nH]c4=O)cc3c2)C[C@H](C)O1 [Example 76, 1-(4-Fluoro-benzyl)-1H-pyrazole-4-carboxylic acid {5-[5-(cis-2,6-dimethyl-morpholin-4-ylmethyl)-1H-indol-2-yl]-6-oxo-1,6-dihydro-pyridin-3-yl}-amide]
< 100 nM	CN(C)CCN(C)Cc1ccc2[nH]c(-c3cc(NC(=O)c4cnn(Cc5ccccc5)c4)c[nH]c3=O)cc2c1 [Example 170, 1-Benzyl-1H-pyrazole-4-carboxylic acid [5-(5-{1(2-dimethylamino-ethyl)-methyl-aminol-methyl}-1H-indol-2-yl)-6-oxo-1,6-dihydro-pyridin-3-yl]-amide]
< 100 nM	CC(C)(COc1ccc2[nH]c(-c3cc(NC(=O)c4cnn(Cc5ccccc5)c4)c[nH]c3=O)cc2c1)CN1CC[C@@H](F)C1 [Example 182, 1-Benzyl-1H-pyrazole-4-carboxylic acid (5-{5-[3-((R)-3-fluoro-pyrrolidin-1-yl)-2,2-dimethyl-propoxy]-1H-indol-2-yl}-6-oxo-1,6-dihydro-pyridin-3-yl)-amide]
< 100 nM	CC(c1ccccc1)n1cc(C(=O)Nc2c[nH]c(=O)c(-c3cc4cc(CN5CCCCC5)ccc4[nH]3)c2)cn1 (centres unmarked) [Example 85, 1-(1-Phenyl-ethyl)-1H-pyrazole-4-carboxylic acid [6-oxo-5-(5-piperidin-1-ylmethyl-1H-indol-2-yl)-1,6-dihydro-pyridin-3-yl]-amide]
< 100 nM	O=C(Nc1cnn(Cc2ccc(F)c(F)c2)c1)c1c[nH]c(=O)c(-c2cc3cc(CN4CCCC4)ccc3[nH]2)c1 [Example 98, 6-oxo-5-(5-pyrrolidin-1-ylmethyl-1H-indol-2-yl)-1,6-dihydro-pyridine-3-carboxylic acid [1-(3,4-difluoro-benzyl)-1H-pyrazol-4-yl]-amide]
< 100 nM	Cc1ccc(Cn2cc(C(=O)Nc3c[nH]c(=O)c(-c4cc5cc(OCCCN6CCOCC6)ccc5[nH]4)c3)cn2)cc1 [Example 117, 1-(4-Methyl-benzyl)-1H-pyrazole-4-carboxylic acid {5-[5-(3-morpholin-4-yl-propoxy)-1H-indol-2-yl]-6-oxo-1,6-dihydro-pyridin-3-yl}-amide]
